Laboratory results from paper PMC9691367, “The PROTAC selectively degrading Bcl-xL represents a novel Hedgehog pathway inhibitor with capacity of combating resistance to Smoothened inhibitors while sparing bone growth” (Theranostics, 2022).
Where two headings read alike, the source gives them in different places.

How the values were obtained:
Bcl-xL/CRBN = target: T1, Bcl-xL/CRBN (Homo sapiens, UniProt Q07817+Q96SW2); test: HTRF assay for ternary complex formation; format: binding
T1 construct: purchased Cisbio 63ADK000CB37PEG
T1 sequence (Q07817 whole entry, species assumed): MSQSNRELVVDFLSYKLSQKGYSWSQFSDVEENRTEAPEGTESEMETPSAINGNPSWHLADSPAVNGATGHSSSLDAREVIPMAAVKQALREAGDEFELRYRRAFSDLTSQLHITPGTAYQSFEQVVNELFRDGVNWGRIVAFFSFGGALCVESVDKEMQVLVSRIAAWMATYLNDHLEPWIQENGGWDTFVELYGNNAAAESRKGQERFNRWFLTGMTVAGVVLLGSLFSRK
T1 sequence (Q96SW2 whole entry, species assumed): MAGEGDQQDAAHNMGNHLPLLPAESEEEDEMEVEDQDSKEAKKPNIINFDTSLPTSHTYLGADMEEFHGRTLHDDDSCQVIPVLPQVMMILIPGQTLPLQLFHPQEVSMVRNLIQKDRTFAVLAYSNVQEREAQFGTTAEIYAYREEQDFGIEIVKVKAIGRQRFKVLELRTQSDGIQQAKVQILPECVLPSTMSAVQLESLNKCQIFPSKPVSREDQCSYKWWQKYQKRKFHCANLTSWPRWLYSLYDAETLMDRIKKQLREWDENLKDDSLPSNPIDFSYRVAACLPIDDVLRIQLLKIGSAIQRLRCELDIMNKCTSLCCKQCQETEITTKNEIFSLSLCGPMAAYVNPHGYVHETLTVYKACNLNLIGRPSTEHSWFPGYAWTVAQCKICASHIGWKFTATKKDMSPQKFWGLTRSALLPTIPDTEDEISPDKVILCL
Procedure: Bcl-xL/CRBN ternary HTRF assay was used to monitor ternary complex formation between target protein, PROTAC and E3 ligase. Bcl-xL/CRBN PROTAC BINDING ASSAY KITS was purchased from Cisbio (#63ADK000CB37PEG). 200 nL compounds were transferred into 384 assay plate, followed by centrifuging at 1000 RPM. Then 5 µL Bcl-xL and CRBN protein were added into each assay well. After incubation at 25 °C for 15 min, 10 µL Tag2-Eu&Tag1-d2 working solution was added into each assay well and incubated 25 °C for 120 min. The Relative HTRF value was read with BMG (PHERAstar FSX).

[1] = test system: SmoA1 (Smo W539L) medulloblastoma tumor; test: SmoA1 medulloblastoma allograft in nude mice; format: in vivo, mouse
Source text: For in vivo SmoA1 MB allograft studies, SmoA1 spontaneous MB tumors were obtained from ND2:SmoA1 transgenic mice as previously described. Male nude mice (4 to 5 weeks of age) were purchased from Shanghai Lingchang Biotechnology Co. (Shanghai, China). Spontaneous tumors were harvested and subcutaneously allografted into nude mice. When the tumor volumes reached approximately 2000 mm^3, they were harvested and further subcutaneously allografted into nude mice. When the tumor volumes reached about 150 to 200 mm^3, the tumor-bearing mice were randomly assigned into vehicle and treatment groups. Mice were weighed every 3 days. Tumor size was measured once every 3 days using microcaliper. Tumor volume (V) was determined using the following formula: V = (L×W^2) ×0.5, where L is length, and W is width in mm. Tumor tissues were harvested 6 h after the last dosage to examining Gli1 mRNA expression and protein levels. SIAIS361034 for i.p. administration was formulated in 0.5% sodium carboxymethyl cellulose (CMC-Na). All in vivo studies above were approved by and conformed to the policies and regulations of the Animal Care and Use Committee of Fudan University, China.

Gli1 and Ptch1 mRNA = test: RT-qPCR of Hh target genes in NIH-3T3 cells exposed to SAG; format: cell-based; details: 36 h
Procedure: Total RNA was extracted from cells or tissues using the NucleoSpin RNA kit (#740955.50, TaKaRa). RNA reverse transcriptions were performed with PrimeScript RT Reagent Kit with RNase inhibitor (#RR037B, TaKaRa). The quantitative PCR amplifications were performed in triplicate with TB Green Premix Ex Taq (Tli RNase H Plus) (#RR420A, TaKaRa) in an iCycler iQ system (Bio-Rad; Hercules, CA). Relative gene expression for interested genes was calculated using the 2^-ΔΔCt method and normalized to mGUSB expression. Primer sequences for RT-qPCR are as follows: mGli1 forward (5′-[…]-3′), reverse (5′-[…]-3′); mPtch1 forward (5′-[…]-3′), reverse (5′-[…]-3′); mGUSB forward (5′-[…]-3′), reverse (5′-[…]-3′).

[2] = test system: Hh pathway (Gli-luciferase) provoked by Smo WT / Smo mutants; test: Dual luciferase reporter assay, Hh activity induced by ectopic Smo WT or Smo mutants in light II cells; format: cell-based; details: for IC50: 36 h
Source text: The TCF/LEF luciferase reporter plasmid, NF-κB luciferase reporter plasmid, and TK-Renilla luciferase plasmid were purchased from Promega (Madison, WI, USA). Smo plasmid was purchased from Origene (Rockville, MD, USA). The Smo mutant plasmids were generated from wild type Smo plasmid using QuickChange Site-Directed Mutagenesis kit from Agilent (Santa Clara, CA, USA) and confirmed by sequencing. Information on Smo mutants plasmids is provided in Supplementary data 2. The Gli1 plasmid and Gli2-HA plasmid were obtained from Addgene (Cambridge, MA, USA). Transient transfections were performed by Lipofectamine 2000 reagent from Invitrogen (Grand Island, NY, USA) according to the manufacturer's instructions.
Cells seeded in 96-well plates were treated with various treatments as indicated. The luciferase activity in the cell lysates was measured using Dual-Luciferase Reporter Assay System (Promega, Madison, WI, USA) according to the manufacturer's instructions in a luminometer (Molecular Devices, Sunnyvale, CA). The firefly luciferase values were normalized to Renilla values.

Gli1 = test: Immunofluorescence staining of Gli1 in 293T cells transfected with Gli1; format: cell-based; details: 293T cells transfected with Gli1, 1 µM, 24 h
Procedure: Cells were fixed with 4% paraformaldehyde (PFA) for 15 min, permeabilized with 0.3% Triton X-100 in PBS for 10 min, and blocked with 1% BSA in PBS for 2 h. After that, the cells were further incubated with rabbit anti-Gli1 antibody (#101156-T10, SinoBiological) at 4 °C overnight. Then cells were stained with the Alexa Fluor®594-conjugated Goat Anti-rabbit IgG secondary antibody (red) for 1.5 h. Nuclei were counterstained with DAPI (blue). The immunofluorescent images of cells were captured under a fluorescence microscope (Leica).

Bcl-xL = target: T2, Bcl-xL (Mus musculus, UniProt Q64373); test: Western blot of Bcl-xL degradation in NIH-3T3 cells; format: cell-based
T2 construct: endogenous in cells; host or cells: NIH-3T3
T2 sequence (Q64373 whole entry): as the sequence (Q07817 whole entry, species assumed) above, with G40E, S43A, M45R, A168S, E193D counted along it
Procedure: Cells were lysed in cell lysis buffer (50 mM Tris pH 8.0, 150 mM NaCl, 10% glycerol, 1 mM EDTA, 50 mM NaF, and 0.1% NP-40) supplemented with protease and phosphatase inhibitors. Total protein extracts of tissues were generated in radioimmunoprecipitation (RIPA) assay lysis buffer containing complete protease and phosphatase inhibitor cocktail. Protein content was quantified using the Pierce BCA Protein Assay Kit (#23225, Thermo Fisher Scientific). The proteins were separated by SDS-PAGE, electrophoretically transferred to polyvinylidene difluoride (PVDF) blotting membranes (#LC2002, Thermo Fisher Scientific), and subjected to routine immunoblot analysis with primary antibodies as follows: anti-Bcl-2 (#15071), anti-Mcl-1 (#94296), anti-VHL (#68547), anti-CRBN (#71810), and anti-Sufu (#2522) were obtained from Cell Signaling Technology (Danvers, Massachusetts, USA); anti-Bcl-xL (#ab32370), anti-Gli1 (#ab134906), and anti-Smoothened (#ab236465) were obtained from Abcam (Cambridge, CB2 0AX, UK); anti-GAPDH (#60004-1-Ig) and anti-β-tubulin (#10094-1-AP) were purchased from Proteintech Group, Inc. (Rosemont, IL 60018, USA). The results were quantified by densitometry using ImageJ software (NIH).

## CC1(C)CCC(c2ccc(Cl)cc2)=C(CN2CCN(c3ccc(C(=O)NS(=O)(=O)c4ccc(NCCCN5CCN(CCCC#Cc6cccc7c6CN(C6CCC(=O)NC6=O)C7=O)CC5)c(S(=O)(=O)C(F)(F)F)c4)cc3)CC2)C1 (centres unmarked) [SIAIS361034]
Bcl-xL/CRBN
  Ternary complex formation with Bcl-xL and CRBN E3 ligase: could form a stable ternary complex
[1]; nude mice, SIAIS361034 50 mg/kg, day 15 (termination of the experiment)
  tumor inhibition ratio / mean tumor growth inhibition (TGI) ratio: 93.56%
[1]; nude mice, SIAIS361034 50 mg/kg, GDC-0449 50 mg/kg p.o.
  growth of SmoA1 tumors: remarkably suppressed
[1]; tumors harvested 6 h after the last dosage, RT-qPCR
  expression of Gli1 mRNA in tumor tissues: significantly inhibited
[1]; western blot at the end of the experiment
  Bcl-xL and Gli1 protein in harvested tumors: inducing Bcl-xL degradation and repressing Gli1 expression
Gli1 and Ptch1 mRNA
  mRNA expression of Hh target genes Gli1 and Ptch1 activated by SAG: significantly blocked
[2]; Gli-luciferase
  IC50 shift between Smo wild-type and mutations: no significant IC50 shift
[2]; Smo WT, D473H, H231R, W281C, W535L, L412F, F460L, GDC-0449 10 μM (Figure S3B-D)
  Hh activity provoked by wild type Smo and Smo mutants: obviously inhibited
[2]; ectopic Smo D473H, read-out: IC50 value, Smo D473H
  IC50: 188 nM
[2]; ectopic Smo F460L, read-out: IC50 value, Smo F460L
  IC50: 147 nM
[2]; ectopic Smo H231R, read-out: IC50 value, Smo H231R
  IC50: 117 nM
[2]; ectopic Smo L412F, read-out: IC50 value, Smo L412F
  IC50: 40.4 nM
[2]; ectopic Smo W281C, read-out: IC50 value, Smo W281C
  IC50: 92.9 nM
[2]; ectopic Smo W535L, read-out: IC50 value, Smo W535L
  IC50: 171 nM
[2]; ectopic Smo WT, read-out: IC50 value, Smo WT
  IC50: 186 nM
Gli1
  translocation of Gli1 from cytoplasm into nucleus: suppressed translocation of Gli1 from cytoplasm into nucleus
Bcl-xL; 1 µM for 24 h followed by drug withdrawal
  duration of Bcl-xL degradation: around 48 h
Bcl-xL; 1 µM, western blot
  Bcl-xL degradation: significantly degraded Bcl-xL
Bcl-xL; NIH3T3, 24 h, western blot, read-out: maximum degradation (Dmax) of Bcl-xL
  Dmax: 88.1%
Bcl-xL; data not shown
  effect on Bcl-xL mRNA levels: almost no effect
